Test system: Energy system protein genes
Assay: DNA chip mRNA expression in yeast, energy system protein genes (Table 4)
Format: cell-based, Saccharomyces cerevisiae S288C
Procedure: Yeast (Saccharomyces cerevisiae S288C (α SUC2mal mel gap2 CUP1)) were incubated at 25° C. on YPD medium (yeast extract 1%, polypepton 2%, glucose 2%). One of toxic chemical substances was added to the cells at logarithmic growth phase, and the cells were further incubated for two hours. Cells were cultured without any chemical substance in the same condition, and were used as control. Concentrations of the chemical substances were defined to inhibit the growth of the yeast but not lead to death.
After completion of the incubation, the culture was centrifuged to collect the cells. To the cells, sodium acetate buffer (50 mM sodium acetate, 10 mM EDTA, 1% SDS) was added, and the mixture was shaken at 65° C. for five minutes, followed by returning to room temperature, and obtaining the supernatant, of which the procedures were repeated two times. To the supernatant, ½ amount of a solution of phenol/chloroform was added, and the mixture was centrifuged to give a supernatant, which was added with an equal amount of chloroform, and the mixture was centrifuged to give a supernatant. To the supernatant, an equal amount of isopropanol containing 0.3 M sodium acetate was added, and the mixture was allowed to stand at room temperature for 30 minutes, after which the mixture was centrifuged to give a sediment of the whole RNAs. Seventy % ethanol was added to the sediment, and the mixture was again centrifuged to give a sediment, which was then dried and dissolved in water. mRNA was isolated from the whole RNAs as followings. In view of the fact that a poly A chain is attached to the 3′ terminus of mRNA, a polynucleotide having a poly T structure which was immobilized on the surface of latex beads was used to trap the mRNA, and then the mRNA was washed and eluted with spine column (Oligotex-dT30<Super>mRNA Purification Kit, Takara). Reverse transcription of the mRNA was conducted with a reverse transcriptase (Super Script II Reverse Transcriptase; catalogue No. 18064-014, GibcoBRL) using fluorescence-labeled nucleotides to give cDNAs that were introduced with Cy3-dUTP or Cy5-dUTP during the reverse transcription.
The labeled cDNAs were dissolved in TE buffer (10mM Tris-HCl/1 mM EDTA, pH8.0), and the solution was dropped on the DNA chip containing the whole genes of yeast (DNA Chip Research Inc. Japan) so that the cDNAs were hybridized on the DNA chip at 65° C. for over 12 hours. The fluoresces intensity of the DNA chip was read with a scanner, and the ratio relative to the fluorescence intensity resulting from the absence of chemical substance was estimated as the following, which is shown in Tables 1 to 9: […]

In the case of `CN(C)C(=S)SSC(=S)N(C)C` [(10), Tetramethylthiuram disulfide], the “The level of expressed mRNA in the presence of chemical substance/The level of expressed mRNA in the absence of chemical substance” value (yeast gene YJL216C, cells incubated two hours with the chemical substance) is reported as 1.3, the “The level of expressed mRNA in the presence of chemical substance/The level of expressed mRNA in the absence of chemical substance” value (yeast gene YJR009C) is reported as 1.3 and the “The level of expressed mRNA in the presence of chemical substance/The level of expressed mRNA in the absence of chemical substance” value (yeast gene YJR048W) is reported as 1.5. The “The level of expressed mRNA in the presence of chemical substance/The level of expressed mRNA in the absence of chemical substance” value (yeast gene YJR121W, cells incubated two hours with the chemical substance) was 1.3, the “The level of expressed mRNA in the presence of chemical substance/The level of expressed mRNA in the absence of chemical substance” value (yeast gene YJR155W) was 18.8 and the “The level of expressed mRNA in the presence of chemical substance/The level of expressed mRNA in the absence of chemical substance” value (yeast gene YKL016C, cells incubated two hours with the chemical substance) was 1.8. The “The level of expressed mRNA in the presence of chemical substance/The level of expressed mRNA in the absence of chemical substance” value (yeast gene YKL060C, cells incubated two hours with the chemical substance) was 0.8, the “The level of expressed mRNA in the presence of chemical substance/The level of expressed mRNA in the absence of chemical substance” value (yeast gene YKL141W, cells incubated two hours with the chemical substance) was 0.5 and the “The level of expressed mRNA in the presence of chemical substance/The level of expressed mRNA in the absence of chemical substance” value (yeast gene YKL148C, cells incubated two hours with the chemical substance) was 1.7. For the same molecule, the “The level of expressed mRNA in the presence of chemical substance/The level of expressed mRNA in the absence of chemical substance” value (yeast gene YKR009C, cells incubated two hours with the chemical substance) was 2.1, the “The level of expressed mRNA in the presence of chemical substance/The level of expressed mRNA in the absence of chemical substance” value (yeast gene YKR058W, cells incubated two hours with the chemical substance, 25° C., YPD medium) was 1.2 and the “The level of expressed mRNA in the presence of chemical substance/The level of expressed mRNA in the absence of chemical substance” value (yeast gene YKR097W) was 3.3. For the same molecule, the “The level of expressed mRNA in the presence of chemical substance/The level of expressed mRNA in the absence of chemical substance” value (yeast gene YLL041C, cells incubated two hours with the chemical substance) was 0.8, the “The level of expressed mRNA in the presence of chemical substance/The level of expressed mRNA in the absence of chemical substance” value (yeast gene YLR038C, cells incubated two hours with the chemical substance) was 0.9 and the “The level of expressed mRNA in the presence of chemical substance/The level of expressed mRNA in the absence of chemical substance” value (yeast gene YLR044C, cells incubated two hours with the chemical substance) was 1.2. The “The level of expressed mRNA in the presence of chemical substance/The level of expressed mRNA in the absence of chemical substance” value (yeast gene YLR134W, cells incubated two hours with the chemical substance) was 0.7, the “The level of expressed mRNA in the presence of chemical substance/The level of expressed mRNA in the absence of chemical substance” value (yeast gene YLR258W, cells incubated two hours with the chemical substance) was 1.3 and the “The level of expressed mRNA in the presence of chemical substance/The level of expressed mRNA in the absence of chemical substance” value (yeast gene YLR284C, cells incubated two hours with the chemical substance) was 0.9. For the same molecule, the “The level of expressed mRNA in the presence of chemical substance/The level of expressed mRNA in the absence of chemical substance” value (yeast gene YLR295C, cells incubated two hours with the chemical substance, 25° C., YPD medium) was 1.2, the “The level of expressed mRNA in the presence of chemical substance/The level of expressed mRNA in the absence of chemical substance” value (yeast gene YLR304C, cells incubated two hours with the chemical substance) was 2.2 and the “The level of expressed mRNA in the presence of chemical substance/The level of expressed mRNA in the absence of chemical substance” value (yeast gene YLR345W) was 4.0. The “The level of expressed mRNA in the presence of chemical substance/The level of expressed mRNA in the absence of chemical substance” value (yeast gene YLR354C, cells incubated two hours with the chemical substance) was 0.9, the “The level of expressed mRNA in the presence of chemical substance/The level of expressed mRNA in the absence of chemical substance” value (yeast gene YLR377C, cells incubated two hours with the chemical substance) was 1.6 and the “The level of expressed mRNA in the presence of chemical substance/The level of expressed mRNA in the absence of chemical substance” value (yeast gene YLR395C, cells incubated two hours with the chemical substance) was 0.9. The “The level of expressed mRNA in the presence of chemical substance/The level of expressed mRNA in the absence of chemical substance” value (yeast gene YML087C) was 4.9, the “The level of expressed mRNA in the presence of chemical substance/The level of expressed mRNA in the absence of chemical substance” value (yeast gene YML120C, cells incubated two hours with the chemical substance) was 1.5 and the “The level of expressed mRNA in the presence of chemical substance/The level of expressed mRNA in the absence of chemical substance” value (yeast gene YML129C, cells incubated two hours with the chemical substance) was 2.2. The “The level of expressed mRNA in the presence of chemical substance/The level of expressed mRNA in the absence of chemical substance” value (yeast gene YMR073C, cells incubated two hours with the chemical substance) was 1.2, the “The level of expressed mRNA in the presence of chemical substance/The level of expressed mRNA in the absence of chemical substance” value (yeast gene YMR118C) was 1.4 and the “The level of expressed mRNA in the presence of chemical substance/The level of expressed mRNA in the absence of chemical substance” value (yeast gene YMR205C, cells incubated two hours with the chemical substance) was 0.8. For the same molecule, the “The level of expressed mRNA in the presence of chemical substance/The level of expressed mRNA in the absence of chemical substance” value (yeast gene YMR261C, cells incubated two hours with the chemical substance) was 1.3, the “The level of expressed mRNA in the presence of chemical substance/The level of expressed mRNA in the absence of chemical substance” value (yeast gene YMR267W, cells incubated two hours with the chemical substance, 25° C., YPD medium) was 0.8 and the “The level of expressed mRNA in the presence of chemical substance/The level of expressed mRNA in the absence of chemical substance” value (yeast gene YMR323W, cells incubated two hours with the chemical substance) was 1.3. For the same molecule, the “The level of expressed mRNA in the presence of chemical substance/The level of expressed mRNA in the absence of chemical substance” value (yeast gene YNL071W) was 1.2, the “The level of expressed mRNA in the presence of chemical substance/The level of expressed mRNA in the absence of chemical substance” value (yeast gene YNL202W, cells incubated two hours with the chemical substance) was 1.1 and the “The level of expressed mRNA in the presence of chemical substance/The level of expressed mRNA in the absence of chemical substance” value (yeast gene YNL241C) was 7.4. For the same molecule, the “The level of expressed mRNA in the presence of chemical substance/The level of expressed mRNA in the absence of chemical substance” value (yeast gene YNL331C) was 36.3, the “The level of expressed mRNA in the presence of chemical substance/The level of expressed mRNA in the absence of chemical substance” value (yeast gene YOL086C, cells incubated two hours with the chemical substance) was 1.2 and the “The level of expressed mRNA in the presence of chemical substance/The level of expressed mRNA in the absence of chemical substance” value (yeast gene YOL157C) was 4.8. The “The level of expressed mRNA in the presence of chemical substance/The level of expressed mRNA in the absence of chemical substance” value (yeast gene YOL165C) was 23.3, the “The level of expressed mRNA in the presence of chemical substance/The level of expressed mRNA in the absence of chemical substance” value (yeast gene YOR136W) was 3.4 and the “The level of expressed mRNA in the presence of chemical substance/The level of expressed mRNA in the absence of chemical substance” value (yeast gene YOR142W, cells incubated two hours with the chemical substance) was 1.5. The “The level of expressed mRNA in the presence of chemical substance/The level of expressed mRNA in the absence of chemical substance” value (yeast gene YOR178C, cells incubated two hours with the chemical substance) was 1.7, the “The level of expressed mRNA in the presence of chemical substance/The level of expressed mRNA in the absence of chemical substance” value (yeast gene YOR388C, cells incubated two hours with the chemical substance) was 1.4 and the “The level of expressed mRNA in the presence of chemical substance/The level of expressed mRNA in the absence of chemical substance” value (yeast gene YPL031C, cells incubated two hours with the chemical substance) was 1.4. For the same molecule, the “The level of expressed mRNA in the presence of chemical substance/The level of expressed mRNA in the absence of chemical substance” value (yeast gene YPL061W, cells incubated two hours with the chemical substance) was 0.7, the “The level of expressed mRNA in the presence of chemical substance/The level of expressed mRNA in the absence of chemical substance” value (yeast gene YPL088W) was 2.8 and the “The level of expressed mRNA in the presence of chemical substance/The level of expressed mRNA in the absence of chemical substance” value (yeast gene YPL171C) was 50.6. For the same molecule, the “The level of expressed mRNA in the presence of chemical substance/The level of expressed mRNA in the absence of chemical substance” value (yeast gene YPL240C) was 2.6, the “The level of expressed mRNA in the presence of chemical substance/The level of expressed mRNA in the absence of chemical substance” value (yeast gene YPL262W, cells incubated two hours with the chemical substance) was 5.8 and the “The level of expressed mRNA in the presence of chemical substance/The level of expressed mRNA in the absence of chemical substance” value (yeast gene YPL275W, cells incubated two hours with the chemical substance) was 1.2. For the same molecule, the “The level of expressed mRNA in the presence of chemical substance/The level of expressed mRNA in the absence of chemical substance” value (yeast gene YPL276W, cells incubated two hours with the chemical substance) was 1.8, the “The level of expressed mRNA in the presence of chemical substance/The level of expressed mRNA in the absence of chemical substance” value (yeast gene YPR048W, cells incubated two hours with the chemical substance) was 2.1 and the “The level of expressed mRNA in the presence of chemical substance/The level of expressed mRNA in the absence of chemical substance” value (yeast gene YPR184W, cells incubated two hours with the chemical substance) was 3.2.
